# Measurements from ChEMBL document CHEMBL3603789, “N-Lipidated Peptide Dimers: Effective Antibacterial Agents against Gram-Negative Pathogens through Lipopolysaccharide Permeabilization” (J Med Chem, 2015).
# Bridge positions count the residues as written; N and C are the ends. Peptide text beside a SMILES is read from it. I, II: the chains in the order shown. * marks the point of attachment. Palmitoyl = CCCCCCCCCCCCCCCC(=O)*; Myristoyl = CCCCCCCCCCCCCC(=O)*; Lauroyl = CCCCCCCCCCCC(=O)*
# What was measured:
# [1] = Toxicity in New Zealand white rabbit erythrocytes assessed as hemolytic activity after 60 mins; assay type: cell-based, Oryctolagus cuniculus; details: erythrocyte, 1 h
# Klebsiella pneumoniae [2] = experiment: Antibacterial activity against Klebsiella pneumoniae DM4299 after 24 hrs by broth microdilution method; assay type: functional; details: DM4299, 24 h
# Pseudomonas aeruginosa [3] = experiment: Antibacterial activity against Pseudomonas aeruginosa DM23155 after 24 hrs by broth microdilution method; assay type: functional; details: DM23155, 24 h
# Escherichia coli [4] = experiment: Antibacterial activity against Escherichia coli ATCC 25922 after 24 hrs by broth microdilution method; assay type: functional; details: ATCC 25922, 24 h
# [5] = Self-aggregation activity of the compound using 8-(Phenylamino)-1-naphthalenesulfonic acid as fluorescent probe at 300 uM by fluorescence assay; assay type: physicochemical
# Lipopolysaccharide (LPS) [6] = experiment: Displacement of dansylcadaverine from Escherichia coli 0111:B4 LPS at 15 to 30 uM after 5 mins by high-throughput fluorescence displacement assay
# Lipopolysaccharide (LPS) [7] = experiment: Induction of Escherichia coli 0111:B4 LPS neutralization using p-nitroaniline assessed as concentration required to neutralize 50% after 1 hr by limulus amebocyte lysate assay
# Pseudomonas aeruginosa [8] = experiment: Induction of 1-N-phenylnaphthylamine uptake in Pseudomonas aeruginosa DM23155 at 400 uM after 1 hr by fluorescence assay relative to polymyxin B; assay type: functional
# [9] = Induction of calcein leakage from DOPC artificial membrane at 1:32 ratio of compound to lipid by fluorescence assay; assay type: physicochemical
# Escherichia coli [10] = experiment: Antibacterial activity against Escherichia coli DS17232 after 24 hrs by broth microdilution method; assay type: functional; details: DS17232, 24 h
# Escherichia coli [11] = experiment: Antibacterial activity against Escherichia coli DM17528 after 24 hrs by broth microdilution method; assay type: functional; details: DM17528, 24 h
# Klebsiella pneumoniae [12] = experiment: Antibacterial activity against Klebsiella pneumoniae DS07955 after 24 hrs by broth microdilution method; assay type: functional; details: DS07955, 24 h
# Klebsiella pneumoniae [13] = experiment: Antibacterial activity against Klebsiella pneumoniae DS16260 after 24 hrs by broth microdilution method; assay type: functional; details: DS16260, 24 h
# Klebsiella pneumoniae [14] = experiment: Antibacterial activity against Klebsiella pneumoniae DU31158 after 24 hrs by broth microdilution method; assay type: functional; details: DU31158, 24 h
# Klebsiella pneumoniae [15] = experiment: Antibacterial activity against Klebsiella pneumoniae DB55301 after 24 hrs by broth microdilution method; assay type: functional; details: DB55301, 24 h
# [16] = Self-aggregation activity of the compound using 8-(Phenylamino)-1-naphthalenesulfonic acid as fluorescent probe at 20 uM by fluorescence assay; assay type: physicochemical
# [17] = Self-aggregation activity of the compound using 8-(Phenylamino)-1-naphthalenesulfonic acid as fluorescent probe at 100 uM by fluorescence assay; assay type: physicochemical
# [18] = Self-aggregation activity of the compound using 8-(Phenylamino)-1-naphthalenesulfonic acid as fluorescent probe at 300 uM by fluorescence assay in presence of 150 mM of NaCl; assay type: physicochemical
Structure (SMILES),HC10 [1] [µg/mL],MIC (Klebsiella pneumoniae [2]) [µM],MIC (Pseudomonas aeruginosa [3]) [µM],MIC (Escherichia coli [4]) [µM],Activity [5],Activity (Lipopolysaccharide (LPS) [6]) [%],EC50 (Lipopolysaccharide (LPS) [7]) [µM],Activity (Pseudomonas aeruginosa [8]) [%],Activity [9],MIC (Escherichia coli [10]) [µM],MIC (Escherichia coli [11]) [µM],MIC (Klebsiella pneumoniae [12]) [µM],MIC (Klebsiella pneumoniae [13]) [µM],MIC (Klebsiella pneumoniae [14]) [µM],MIC (Klebsiella pneumoniae [15]) [µM],Activity [16] [%],Activity [17] [%],Activity [18]
CCCCCCCCCCCCCCCC(=O)N[C@@H](CCCNC(=N)N)C(=O)NCC(=O)N[C@@H](CCCNC(=N)N)C(=O)N[C@@H](CCCCN)C(=O)N[C@H](C(=O)N[C@H](C(=O)N[C@@H](CCCNC(=N)N)C(=O)N[C@@H](CCCNC(=N)N)C(=O)N[C@@H](CCCCN)C(=O)N[C@@H](CCCCN)C(=O)O)C(C)C)C(C)C (Palmitoyl-RGRKVVRRKK-OH),5481,40,80,10,Not Active,,,,,,,,,,,,,
CCCCCCCCCCCC(=O)N[C@@H](CCCNC(=N)N)C(=O)NCC(=O)N[C@@H](CCCNC(=N)N)C(=O)N[C@@H](CCCCN)C(=O)NCC(=O)NCC(=O)N[C@@H](CCCNC(=N)N)C(=O)N[C@@H](CCCNC(=N)N)C(=O)NCCCC[C@H](NC(=O)[C@H](CCCNC(=N)N)NC(=O)[C@H](CCCNC(=N)N)NC(=O)CNC(=O)CNC(=O)[C@H](CCCCN)NC(=O)[C@H](CCCNC(=N)N)NC(=O)CNC(=O)[C@H](CCCNC(=N)N)NC(=O)CCCCCCCCCCC)C(=O)N[C@@H](CCCCN)C(=O)O (I: Lauroyl-RGRKGGRRKK-OH / II: Lauroyl-RGRKGGRR; amide I:9-II:C),517,6,6,6,62.5%,126,62.8,55.9,Active,,,,,,,,,
CCCCCCCCCCCCCCCC(=O)N[C@@H](CCCNC(=N)N)C(=O)NCC(=O)N[C@@H](CCCNC(=N)N)C(=O)N[C@@H](CCCCN)C(=O)NCC(=O)NCC(=O)N[C@@H](CCCNC(=N)N)C(=O)N[C@@H](CCCNC(=N)N)C(=O)N[C@@H](CCCCN)C(=O)N[C@@H](CCCCN)C(=O)O (Palmitoyl-RGRKGGRRKK-OH),5064,80,80,10,Not Active,,,,,,,,,,,,,
C[C@H]1COc2c(N3CCN(C)CC3)c(F)cc3c(=O)c(C(=O)O)cn1c23 [LEVOFLOXACIN],,,,,,,,,,20,80,> 100,10,0.03,80,,,
CCCCCCCCCCCCCC(=O)N[C@@H](CCCNC(=N)N)C(=O)NCC(=O)N[C@@H](CCCNC(=N)N)C(=O)N[C@@H](CCCCN)C(=O)NCC(=O)NCC(=O)N[C@@H](CCCNC(=N)N)C(=O)N[C@@H](CCCNC(=N)N)C(=O)NCCCC[C@H](NC(=O)[C@H](CCCNC(=N)N)NC(=O)[C@H](CCCNC(=N)N)NC(=O)CNC(=O)CNC(=O)[C@H](CCCCN)NC(=O)[C@H](CCCNC(=N)N)NC(=O)CNC(=O)[C@H](CCCNC(=N)N)NC(=O)CCCCCCCCCCCCC)C(=O)N[C@@H](CCCCN)C(=O)O (I: Myristoyl-RGRKGGRRKK-OH / II: Myristoyl-RGRKGGRR; amide I:9-II:C),82,10,6,10,,124,35.3,39.2,Active,,,,,,,50,50,Active
